Measured values published in patent publication US9119881B2, “Method of synergistically enhancing the therapeutic efficacy and safety of medication through a combination therapy” (priority 2010, dated 2015).

Tests used:
[1] = tested on: human aorta endothelial cells (HAECs); experiment: Intracellular cAMP assessment in HAECs; format: cell-based; conditions: 5 min stimulation, beginning at 0.1 uM ABA
Description: These cells were serum-starved using HBSS buffer for 30 min and then stimulated with various concentrations of abscisic acid (ABA) or Forskolin (forsk, 1 uM) for 5 minutes. After removing supernatant, cells were lysed with 0.1 M HCL to measure nonacetylated cAMP. Results (pmol/ml) from four independent experiments are depicted. Data are represented as mean±standard error.
(§1) Confluent human aorta endothelial cells (HAECs) were serum-starved using HBSS buffer for 30 min, then stimulated with various concentration of ABA and Forskolin (1 uM) for 5 min, after removing supernatant, cells were lysed with 0.1 M HCL to measure non-acetylated cAMP using a commercially available kit (Cayman chemical) following the manufacturer's instructions. Results (pmol/mL) were obtained from four independent experiments. For nitric oxide (NO), confluent HAECs were serum-starved for 30 min by using HBSS buffer, then treated with ABA for 15 min. Supernatant was used to measure NO using an fluorescent kit.

[2] = tested on: human aorta endothelial cells (HAECs); experiment: Nitric oxide assessment in HAECs; format: cell-based; conditions: 15 min treatment, beginning at 0.1 uM ABA
Description: as §1

[3] = tested on: insulin-secreting pancreatic beta cells; experiment: Pancreatic beta cell viability / apoptosis after streptozotocin challenge; format: cell-based
From the text: Data are presented as mean±standard error.

[4] = Systolic blood pressure in ApoE-deficient mice; format: in vivo
[5] = Intraperitoneal glucose tolerance test and fasting insulin in db/db mice; format: in vivo
Description: Obese db/db mice were fed high-fat diets containing […] mg/kg diet rosiglitazone maleate (control, Ros^lo, and Ros^hi, respectively) with and without racemic ABA (100 mg/kg diet). On day 42 mice underwent an intraperitoneal glucose tolerance test (IPGTT) (A). Areas under the curve (B) were calculated for each treatment. On day 55 fasting insulin levels were measured for mice on each diet (C). Data are represented as mean±standard error.
Mice (n=40) were fed one of six experimental diets: a control high-fat diet (control), a high-fat diet containing low dose rosiglitazone maleate (Ros^lo, 10 mg/kg diet), or a high-fat diet containing a high dose of rosiglitazone maleate (Ros^hi, 70 mg/kg diet), each with or without all racemic ABA (100 mg/kg, Sigma Aldrich, St. Louis, Mo.) for 60 days. Mice were weighed and fasting (12 h) blood glucose levels were taken weekly. Blood glucose levels were assessed with an ACCU-CHEK® Glucometer (Roche, Indianapolis, Ind.). An intraperitoneal glucose tolerance test (IPGTT, 1 g glucose/kg body weight) was conducted on fasted mice (12 h) for 0, 30, 90, and 180 minute time points and insulin levels were measured on day 54. On day 60 mice were sacrificed by CO2 narcosis with secondary thoracotomy. Abdominal WAT, inguinal subcutaneous WAT, and liver were then excised and weighed. Abdominal and subcutaneous WAT were then digested and fractionated.

[6] = tested on: stromal vascular cells (SVCs); experiment: Gene expression in LPS-treated stromal vascular cells; format: cell-based, mice; conditions: LPS 100 ng/mL, 6 h, ABA 10 μM, rosiglitazone 1 μM
Description: SVCs from abdominal white adipose tissue were isolated from db/db mice fed high-fat control diet for 60 days. Cells were seeded into 24-well plates at 1×10^6 cells/well and treated with LPS (100 ng/mL) with and without ABA (10 μM), Ros (1 μM), or ABA and Ros (ABA/Ros). The relative expressions of genes peroxisome proliferator activated receptor γ (PPAR γ) (A), CCL17 (B), monocyte chemoattractant protein 1 (MCP-1) (C), and mannose receptor (D) were calculated as a ratio to the housekeeping gene β-actin. Data are represented as mean±standard error.
Isolated cells from the stromal vascular fraction (SVF) of WAT from high-fat fed db/db mice were enumerated and seeded into 24-well plates at […] cells/well. […]
Total RNA was isolated from adipose tissue using the RNeasy Lipid Mini Kit (Qiagen) and from cells using the RNeasy Mini Kit (Qiagen) according to the manufacturer's instructions. […] Each gene amplicon was purified with the MiniElute PCR Purification Kit (Qiagen) and quantitated on an agarose gel by using a DNA mass ladder (Promega). […]
Complementary DNA (cDNA) concentrations for genes of interest were examined by real-time quantitative PCR using an iCycler IQ System and Sybr Green PCR master mix (Applied Biosystems, Foster City, Calif.). […] Results are presented as starting quantity of target cDNA (picograms) per microgram of total RNA.

[7] = mice fed ABA at doses ranging from 100 to 800 mg/kg of diet [44]; cited from earlier work

## CC1=CC(=O)CC(C)(C)C1(O)/C=C/C(C)=C\C(=O)O (racemic) [ABA, abscisic acid]
[1]
  intracellular cAMP concentration: significantly increased
[2]
  nitric oxide production: significantly increased
[3]; ABA 1 and 10 micromolar, streptozotocin (STZ) 2 mM for 24 hours
  viability of insulin-secreting pancreatic beta cells: increases
[3]; FIG. 4
  pancreatic beta cell apoptosis caused by streptozotocin: diminishes
[4]
  systolic blood pressure: lowers
[5]; day 42, relative to the control diet
  glucose tolerance (IPGTT): significantly improved
[5]; dietary ABA 100 mg/kg diet, P=0.04
  fasting insulin levels: significantly reduced
[6]
  M1 marker CCL17 expression: significantly reduced
[7]
  side-effects: no detectable side-effects
